Target: T1, recombinant human GR (Homo sapiens, UniProt P04150)
T1 construct: purchased Panvera/Invitrogen P2812 (kit P2893)
T1 sequence (P04150 1-777): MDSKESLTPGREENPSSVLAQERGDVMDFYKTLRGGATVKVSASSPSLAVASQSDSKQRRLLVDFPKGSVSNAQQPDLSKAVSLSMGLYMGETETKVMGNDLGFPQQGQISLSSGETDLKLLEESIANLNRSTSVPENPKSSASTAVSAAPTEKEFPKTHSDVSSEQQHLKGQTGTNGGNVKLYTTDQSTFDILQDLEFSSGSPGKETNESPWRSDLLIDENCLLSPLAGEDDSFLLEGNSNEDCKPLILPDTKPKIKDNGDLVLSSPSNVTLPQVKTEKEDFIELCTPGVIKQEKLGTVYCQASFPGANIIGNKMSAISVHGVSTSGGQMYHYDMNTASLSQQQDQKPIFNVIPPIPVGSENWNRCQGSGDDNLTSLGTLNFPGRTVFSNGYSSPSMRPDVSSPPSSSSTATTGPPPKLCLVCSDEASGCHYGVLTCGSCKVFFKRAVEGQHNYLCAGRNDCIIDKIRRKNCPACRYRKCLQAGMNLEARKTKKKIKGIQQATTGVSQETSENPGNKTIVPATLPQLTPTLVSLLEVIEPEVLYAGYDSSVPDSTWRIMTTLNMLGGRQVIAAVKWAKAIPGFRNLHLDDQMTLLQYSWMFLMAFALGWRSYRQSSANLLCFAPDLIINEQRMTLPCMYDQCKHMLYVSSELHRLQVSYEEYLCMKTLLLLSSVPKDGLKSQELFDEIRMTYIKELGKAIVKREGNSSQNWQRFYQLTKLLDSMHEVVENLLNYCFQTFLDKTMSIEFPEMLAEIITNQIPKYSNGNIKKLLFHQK
Assay: Human Glucocorticoid Receptor (GR) Assay, fluorescence polarization
Type: binding
Conditions: GS Red tracer, incubated 2 h at r.t., XLfit model 205, read-out: GRhuFL_FP_v2 Mean IC50
Method in brief: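 After 2 h dark incubation at r.t., polarization reported displacement of the GS Red tracer from recombinant GR, in buffer with phosphate, molybdate, EDTA, DTT and Stabilizing Peptide. Controls: dexamethasone (100%) and DMSO (0%).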

| IC50 [nM] | Compound |
| --- | --- |
| 6.4 | C[C@H](NC(=O)[C@@H]1CCCN1)[C@H](Oc1ccc2c(cnn2-c2ccc(F)cc2)c1)c1ccc2c(c1)OCCO2 [Example 125, (S)-N-((1R,2S)-1-(2,3-dihydrobenzo[b][1,4]dioxin-6-yl)-1-(1-(4-fluorophenyl)-1H-indazol-5-yloxy)propan-2-yl)pyrrolidine-2-carboxamide] |
| 2.9 | COc1cccc([C@@H](Oc2ccc3c(cnn3-c3ccc(Cl)cc3)c2)[C@H](C)NC(=O)C(F)(F)F)c1 [Example 126, N-((1R,2S)-1-(1-(4-chlorophenyl)-1H-indazol-5-yloxy)-1-(3-methoxyphenyl)propan-2-yl)-2,2,2-trifluoroacetamide] |
| 3.9 | COc1cccc([C@@H](Oc2ccc3c(cnn3-c3ccc(Cl)cc3)c2)[C@H](C)NC(=O)C(C)(F)F)c1 [Example 128, N-((1R,2S)-1-(1-(4-chlorophenyl)-1H-indazol-5-yloxy)-1-(3-methoxyphenyl)propan-2-yl)-2,2-difluoropropanamide] |
| 11 | CC(C)n1ncc2cc(O[C@H](c3ccccc3)[C@H](C)NC(=O)C(F)(F)F)ccc21 [Example 129, 2,2,2-Trifluoro-N-[(1R,2S)-1-phenyl-1-(1-propan-2-ylindazol-5-yl)oxy-propan-2-yl]acetamide] |
| 2.5 | C[C@H](NC(=O)C(F)(F)F)[C@H](Oc1ccc2c(cnn2C2CCCC2)c1)c1ccccc1 [Example 130, N-[(1R,2S)-1-(1-cyclopentylindazol-5-yl)oxy-1-phenyl-propan-2-yl]-2,2,2-trifluoro-acetamide] |
| 4 | COc1cccc([C@@H](Oc2ccc3c(cnn3-c3ccc(F)cc3)c2)[C@H](C)NC(=O)c2ccc(C)s2)c1 [Example 131, N-[(1R,2S)-1-[1-(4-fluorophenyl)indazol-5-yl]oxy-1-(3-methoxyphenyl)propan-2-yl]-5-methyl-thiophene-2-carboxamide] |
| 4.1 | COc1cccc([C@@H](Oc2ccc3c(cnn3-c3ccc(F)cc3)c2)[C@H](C)NC(=O)c2sccc2C)c1 [Example 132, N-[(1R,2S)-1-[1-(4-fluorophenyl)indazol-5-yl]oxy-1-(3-methoxyphenyl)propan-2-yl]-3-methyl-thiophene-2-carboxamide] |
| 3.3 | COc1cccc([C@@H](Oc2ccc3c(cnn3-c3ccc(F)cc3)c2)[C@H](C)NC(=O)c2cccn2C)c1 [Example 133, N-[(1R,2S)-1-[1-(4-fluorophenyl)indazol-5-yl]oxy-1-(3-methoxyphenyl)propan-2-yl]-1-methyl-pyrrole-2-carboxamide] |
| 3.6 | COc1cccc([C@@H](Oc2ccc3c(cnn3-c3ccc(F)cc3)c2)[C@H](C)NC(=O)c2ccsc2)c1 [Example 134, N-[(1R,2S)-1-[1-(4-fluorophenyl)indazol-5-yl]oxy-1-(3-methoxyphenyl)propan-2-yl]thiophene-3-carboxamide] |
| 3.1 | COc1cccc([C@@H](Oc2ccc3c(cnn3-c3ccc(F)cc3)c2)[C@H](C)NC(=O)c2nccs2)c1 [Example 135, N-[(1R,2S)-1-[1-(4-fluorophenyl)indazol-5-yl]oxy-1-(3-methoxyphenyl)propan-2-yl]1,3-thiazole-2-carboxamide] |
| 3 | COc1cccc([C@@H](Oc2ccc3c(cnn3-c3ccc(F)cc3)c2)[C@H](C)NC(=O)c2cc(C)on2)c1 [Example 136, N-[(1R,2S)-1-[1-(4-fluorophenyl)indazol-5-yl]oxy-1-(3-methoxyphenyl)propan-2-yl]-5-methyl-1,2-oxazole-3-carboxamide] |
| 360 | CC(C)C(=O)NC(=O)C(Oc1ccc2c(cnn2-c2ccc(F)cc2)c1)c1ccccc1 (centres unmarked) [Example 137, N-[2-[1-(4-fluorophenyl)indazol-5-yl]oxy-2-phenyl-acetyl]-2-methyl-propanamide] |
| 4.1 | C[C@H](NC(=O)C1(O)CC1)[C@H](Oc1ccc2c(cnn2-c2ccc(F)cc2)c1)c1ccc(C(F)(F)F)cc1 [Example 139, N-[(1R,2S)-1-[1-(4-fluorophenyl)indazol-5-yl]oxy-1-[4-(trifluoromethyl)phenyl]propan-2-yl]-1-hydroxy-cyclopropane-1-carboxamide] |
| 3.3 | C[C@H](NC(=O)C(F)(F)F)[C@H](Oc1ccc2c(cnn2-c2ccc(CO)cc2)c1)c1ccccc1 [Example 141, 2,2,2-trifluoro-N-((1R,2S)-1-(1-(4-(hydroxymethyl)phenyl)-1H-indazol-5-yloxy)-1-phenylpropan-2-yl)acetamide] |
| 5.6 | C[C@H](NC(=O)C(F)(F)F)[C@H](Oc1ccc2c(cnn2-c2ccc(CN3CCOCC3)cc2)c1)c1ccccc1 [Example 142, 2,2,2-trifluoro-N-((1R,2S)-1-(1-(4-(morpholinomethyl)phenyl)-1H-indazol-5-yloxy)-1-phenylpropan-2-yl)acetamide] |
| 23 | C[C@H](NC(=O)C(F)(F)F)[C@H](Oc1ccc2c(cnn2-c2ccc(CN(C)C)cc2)c1)c1ccccc1 [Example 143, N-((1R,2S)-1-(1-(4-((dimethylamino)methyl)phenyl)-1H-indazol-5-yloxy)-1-phenylpropan-2-yl)-2,2,2-trifluoroacetamide] |
| 3 | C[C@H](NC(=O)C(F)(F)F)[C@H](Oc1ccc2c(cnn2-c2cccc(CO)c2)c1)c1ccccc1 [Example 144, 2,2,2-trifluoro-N-((1R,2S)-1-(1-(3-(hydroxymethyl)phenyl)-1H-indazol-5-yloxy)-1-phenylpropan-2-yl)acetamide] |
| 5.5 | C[C@H](NC(=O)C(F)(F)F)[C@H](Oc1ccc2c(cnn2-c2cccc(CN3CCOCC3)c2)c1)c1ccccc1 [Example 145, 2,2,2-trifluoro-N-((1R,2S)-1-(1-(3-(morpholinomethyl)phenyl)-1H-indazol-5-yloxy)-1-phenylpropan-2-yl)acetamide] |
| 78 | C[C@H](NC(=O)C(F)(F)F)[C@H](Oc1ccc2c(cnn2-c2cccc(CN(C)C)c2)c1)c1ccccc1 [Example 146, N-((1R,2S)-1-(1-(3-((dimethylamino)methyl)phenyl)-1H-indazol-5-yloxy)-1-phenylpropan-2-yl)-2,2,2-trifluoroacetamide] |
| 5.5 | Cc1ccc([C@@H](Oc2ccc3c(cnn3-c3ccc(F)cc3)c2)[C@H](C)NC(=O)C(F)(F)F)cc1C [Example 149, N-[(1R,2S)-1-(3,4-dimethylphenyl)-1-[1-(4-fluorophenyl)indazol-5-yl]oxy-propan-2-yl]-2,2,2-trifluoro-acetamide] |
| 4.6 | C[C@H](NC(=O)C(F)(F)F)[C@H](Oc1ccc2c(cnn2-c2ccc(F)cc2)c1)c1ccc(F)c(F)c1 [Example 150, N-[(1R,2S)-1-(3,4-difluorophenyl)-1-[1-(4-fluorophenyl)indazol-5-yl]oxy-propan-2-yl]-2,2,2-trifluoro-acetamide] |
| 32 | Cc1ccc([C@@H](Oc2ccc3c(cnn3-c3ccc(F)cc3)c2)[C@H](C)NC(=O)C(F)(F)F)cc1F [Example 151, 2,2,2-trifluoro-N-[(1R,2S)-1-(3-fluoro-4-methyl-phenyl)-1-[1-(4-fluorophenyl)indazol-5-yl]oxy-propan-2-yl]acetamide] |
| 3.6 | C[C@H](NC(=O)C(F)(F)F)[C@H](Oc1ccc2c(cnn2-c2ccc(F)cc2)c1)c1cccc(F)c1 [Example 152, 2,2,2-trifluoro-N-[(1R,2S)-1-(3-fluorophenyl)-1-[1-(4-fluorophenyl)indazol-5-yl]oxy-propan-2-yl]acetamide] |
